Data on two compounds can be found in patent publication US20030170223A1, “Pulmonary vasodilator surfactant compositions and method of use” (Board of Trustees of Michigan State University, priority 2002, published 2003).

The target in one test is TNF-α (Homo sapiens, UniProt P01375). Conditions: Fichtlscherer (2001); cited from earlier work.
In the next test the test system is elevated PVR. Briefly: GBS-induced pulmonary hypertension, pilot experiments. The format is in vivo, rats. The procedure:
Experimental Protocol is as follows. Fifteen rats were randomly assigned to 1 of 3 groups. Measurements taken at each time point included arterial and mixed venous blood gases, inert gas determinations in samples of arterial blood, mixed venous blood and expired gas, and TNF and TxB2 assays, mean P sa′ mean PAP, P pcw′ and CO from arterial blood, and PVR (PVR=PAP−P pcw/CO), and systemic vascular resistance (SVR=P sa/CO) were calculated at each time point.
After baseline measurements, all rats received continuous infusion of GBS (1.25×10^9 cfu/kg/hr) for 5 hours. Repeat measurements were made at 0.5, 4.0, 4.5, and 5.0 hr of GBS infusion. After 4 hours of GBS infusion, treated animals received amr (amr 10 and amr 20) (Inocor lactate, Sterling Drug Co., New York, N.Y.); control animals (control) received the amr carrier solution containing lactic acid and sodium metabisulfite. Amr 10 rats (n=5; 11.2: t 4.1 days; 3.0: t 0.5 kg) received an amr bolus (8 mg/kg) followed by a continuous infusion of amr diluted with normal saline (10 about g/kg/min) for 1 hour. Amr 20 rats (n=5; 9.2 t 2.2 days; 2.2: t 0.4 kg) received the same amr bolus (8 mg/kg) followed by a continuous infusion of amr diluted with normal saline (20 about g/kg/min) for 1 hour. […]

In test [1] the test system is non-septic forms of pulmonary hypertension. Conditions: infusion rates of 10 to 40 about g/kg/min, human studies; cited from earlier work.

Chain of TNF-α (P01375 77-233 limits assumed): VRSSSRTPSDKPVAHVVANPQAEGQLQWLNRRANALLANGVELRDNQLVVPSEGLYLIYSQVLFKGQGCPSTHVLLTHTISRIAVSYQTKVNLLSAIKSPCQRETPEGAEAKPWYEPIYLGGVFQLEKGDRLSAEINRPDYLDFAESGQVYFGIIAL

For the compound ETANERCEPT, the “systemic endothelial vasodilator capacity” value at TNF-α is given as “profoundly improves”. Take `CC(O)C(=O)O.Nc1cc(-c2ccncc2)c[nH]c1=O` [amr]: the “effect on elevated PVR” value in the test with elevated PVR is “acute reduction in elevated PVR”. Besides, in test [1], the “reversal of non-septic pulmonary hypertension” value is recorded as “successful in reversing”.
